Measurements reported in patent publication US12187728B2 (Raze Therapeutics, Inc., priority 2015, dated 2025).

biological target: T1, Human MTHFD2 (Homo sapiens, UniProt P13995); test: MTHFD2 Activity Assay (dehydrogenase activity, diaphorase/resazurin coupled fluorescence); format: biochemical; details: inhibitory activity (IC50 and/or binding constant); 0.2 nM MTHFD2, 11 concentrations
T1 construct: residues 36-350 in Uniport ID P13995; His6 (N); made in house; host or cells: E. coli
T1 sequence (P13995 36-350): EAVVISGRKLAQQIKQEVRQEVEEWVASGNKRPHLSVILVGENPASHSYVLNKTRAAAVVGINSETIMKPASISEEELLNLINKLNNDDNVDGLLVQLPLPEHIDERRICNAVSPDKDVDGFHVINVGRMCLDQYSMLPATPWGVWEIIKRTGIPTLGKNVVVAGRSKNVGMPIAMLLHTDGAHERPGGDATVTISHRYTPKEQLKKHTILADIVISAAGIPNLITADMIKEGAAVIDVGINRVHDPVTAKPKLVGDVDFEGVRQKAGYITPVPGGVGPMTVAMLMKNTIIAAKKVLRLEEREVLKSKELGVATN
Excerpt: Human MTHFD2 (residues 36-350 in Uniport ID P13995) was expressed as an N-terminal His6 tagged protein and purified in E. coli using nickel capture followed by size-exclusion chromatography.
MTHFD2 dehydrogenase activity oxidizes methylene tetrahyrofolate to methenyl-tetrahydrofolate with the concomitant reduction of NAD to NADH. MTHFD2 dehydrogenase activity was followed by coupling the generation of NADH to diaphorase catalyzed […] of resazurin to fluorescent resorufin. Briefly, control (DMSO) or compound was incubated with 0.2 nM MTHFD2 for 15 minutes in 10.5 μl assay buffer containing 100 mM Hepes, pH 8.0, 5 mM MgCl2, 5 mM KH2PO4, 0.05% BSA, 0.01% Tween-20 in a 384 well Griener, low volume, black plate. 10 μl of substrate buffer containing 70 μM CH2-THF, 1 mM NAD^+, 100 μM Resazurin and 0.42 mg/ml diaphorase was then added to initiate the reaction and the reaction plate was incubated for 30 minutes. 5 μl of 250 mM EDTA was then added to each well to stop the reaction and MTHFD2 activity was quantified by measuring resorufin fluorescence emission at 598 nm following excitation at 525 nm. Activity in positive control wells containing the complete reaction mixture and DMSO alone was set to 100% while activity in negative control wells with the complete reaction mix without MTHFD2 was set to 0%. 11 concentrations of each compound were tested and the fluorescent data at each concentration was normalized to the positive and negative controls and represented as % inhibition. Median inhibitory concentration (IC50) was calculated by fitting % inhibition at each concentration to a 4 parameter logistic fit equation using Graphpad Prizm.
The compound numbers correspond to the compound numbers in Table A (i.e., the example numbers).

| SMILES | IC50 [µM] |
| --- | --- |
| Cn1c(Nc2ccnc([C@H]3C[C@@H]3C(=O)O)c2)nc2c1c(=O)n(Cc1ccc(Cl)c(Cl)c1)c(=O)n2C (racemic) [Example 279, (±)-trans-2-(4-((1-(3,4-dichlorobenzyl)-3,7-dimethyl-2,6-dioxo-2,3,6,7-tetrahydro-1H-purin-8-yl)amino)pyridin-2-yl)cyclopropanecarboxylic acid] | 0.01 to 1 |
| Cn1c(Nc2ccnc([C@H]3C[C@@H]3CO)c2)nc2c1c(=O)n(Cc1ccc(Cl)c(Cl)c1)c(=O)n2C (racemic) [Example 284, (±)-trans-1-(3,4-dichlorobenzyl)-8-((2-(2-(hydroxymethyl)cyclopropyl)pyridin-4-yl)amino)-3,7-dimethyl-1H-purine-2,6(3H,7H)-dione] | 0.01 to 1 |
| Cn1c(Nc2ccnc([C@H]3C[C@@H]3C(N)=O)c2)nc2c1c(=O)n(Cc1ccc(Cl)c(Cl)c1)c(=O)n2C (racemic) [Example 296, (±)-trans-2-(4-((1-(3,4-Dichlorobenzyl)-3,7-dimethyl-2,6-dioxo-2,3,6,7-tetrahydro-1H-purin-8-yl)amino)pyridin-2-yl)cyclopropanecarboxamide] | 0.01 to 1 |
| Cn1c(Nc2cccc([C@H]3C[C@@H]3C(=O)O)n2)nc2c1c(=O)n(Cc1ccc(Cl)c(Cl)c1)c(=O)n2C (racemic) [Example 299, (±)-trans-2-(6-((1-(3,4-dichlorobenzyl)-3,7-dimethyl-2,6-dioxo-2,3,6,7-tetrahydro-1H-purin-8-yl)amino)pyridin-2-yl)cyclopropanecarboxylic acid] | 0.01 to 1 |
| Cn1c(Nc2cccc([C@@H]3C[C@H]3C(=O)O)n2)nc2c1c(=O)n(Cc1cc3c(Cl)cccc3[nH]1)c(=O)n2C (racemic) [Example 315, (±)-trans-2-[6-[[1-[(4-chloro-1H-indol-2-yl)methyl]-3,7-dimethyl-2,6-dioxo-purin-8-yl]amino]-2-pyridyl]cyclopropanecarboxylic acid] | 0.01 to 1 |
| Cn1c(Nc2ccnc([C@H]3C[C@@H]3C(=O)O)c2)nc2c1c(=O)n(Cc1cc3c(Cl)cccc3[nH]1)c(=O)n2C (racemic) [Example 321, (±)-trans-2-(4-((1-((4-chloro-1H-indol-2-yl)methyl)-3,7-dimethyl-2,6-dioxo-2,3,6,7-tetrahydro-1H-purin-8-yl)amino)pyridin-2-yl)cyclopropanecarboxylic acid] | 0.01 to 1 |
| Cn1c(N[C@H]2CC[C@H](CO)C2)nc2c1c(=O)n(Cc1ccc(Cl)c(Cl)c1)c(=O)n2C (racemic) [Example 325, (±)-1-(3,4-dichlorobenzyl)-8-((trans)-3-(hydroxymethyl)cyclopentylamino)-3,7-dimethyl-1H-purine-2,6(3H,7H)-dione] | 0.01 to 1 |
| Cn1c(Nc2ccnc([C@H]3C[C@H]3C(=O)O)c2)nc2c1c(=O)n(Cc1ccc(Cl)c(Cl)c1)c(=O)n2C (racemic) [Example 332, (±)-cis-2-(4-((1-(3,4-dichlorobenzyl)-3,7-dimethyl-2,6-dioxo-2,3,6,7-tetrahydro-1H-purin-8-yl)amino)pyridin-2-yl)cyclopropanecarboxylic acid] | 0.01 to 1 |
| Cn1c(Nc2cccc([C@H]3C[C@@H]3CO)n2)nc2c1c(=O)n(Cc1cc3c(Cl)cccc3[nH]1)c(=O)n2C (racemic) [Example 335, (±)-trans-1-((4-chloro-1H-indol-2-yl)methyl)-8-((6-(-2-(hydroxymethyl)cyclopropyl)pyridin-2-yl)amino)-3,7-dimethyl-1H-purine-2,6(3H,7H)-dione] | 1 to 5 |
| Cn1c(Nc2cccc([C@H]3C[C@H]3C(=O)O)n2)nc2c1c(=O)n(Cc1ccc(Cl)c(Cl)c1)c(=O)n2C (racemic) [Example 357, (±)-cis-2-(6-((1-(3,4-dichlorobenzyl)-3,7-dimethyl-2,6-dioxo-2,3,6,7-tetrahydro-1H-purin-8-yl)amino)pyridin-2-yl)cyclopropanecarboxylic acid] | 0.01 to 1 |
| Cn1c(Nc2cccc([C@@H]3C[C@H]3C(N)=O)n2)nc2c1c(=O)n(Cc1cc3c(Cl)cccc3[nH]1)c(=O)n2C (racemic) [Example 364, (±)-trans-2-(6-((1-((4-chloro-1H-indol-2-yl)methyl)-3,7-dimethyl-2,6-dioxo-2,3,6,7-tetrahydro-1H-purin-8-yl)amino)pyridin-2-yl)cyclopropanecarboxamide] | 0.01 to 1 |
| Cn1c(Nc2ccnc([C@H]3C[C@H]3C(=O)O)c2)nc2c1c(=O)n(Cc1cc3c(Cl)cccc3[nH]1)c(=O)n2C (racemic) [Example 368, (±)-cis-2-(4-((1-((4-chloro-1H-indol-2-yl)methyl)-3,7-dimethyl-2,6-dioxo-2,3,6,7-tetrahydro-1H-purin-8-yl)amino)pyridin-2-yl)cyclopropanecarboxylic acid] | 0.01 to 1 |
| Cn1c(Nc2cccc([C@H]3C[C@H]3C(=O)O)n2)nc2c1c(=O)n(Cc1cc3c(Cl)cccc3[nH]1)c(=O)n2C (racemic) [Example 372, (±)-cis-2-(6-((1-((4-chloro-1H-indol-2-yl)methyl)-3,7-dimethyl-2,6-dioxo-2,3,6,7-tetrahydro-1H-purin-8-yl)amino)pyridin-2-yl)cyclopropane-1-carboxylic acid] | 0.01 to 1 |
| Cn1c(N[C@H]2CC[C@@H](O)C2)nc2c1c(=O)n(Cc1ccc(Cl)c(Cl)c1)c(=O)n2C (single isomer, unassigned) [Example 43, 1-(3,4-dichlorobenzyl)-8-((1S,3R)-3-hydroxycyclopentylamino)-3,7-dimethyl-1H-purine-2,6(3H,7H)-dione or 1-(3,4-dichlorobenzyl)-8-((1R,3S)-3-hydroxycyclopentylamino)-3,7-dimethyl-1H-purine-2,6(3H,7H)-dione] | 0.01 to 1 |
| Cn1c(N[C@H]2CC[C@H](O)C2)nc2c1c(=O)n(Cc1ccc(Cl)c(Cl)c1)c(=O)n2C (single isomer, unassigned) [Example 70, 1-(3,4-dichlorobenzyl)-8-((1S,3S)-3-hydroxycyclopentylamino)-3,7-dimethyl-1H-purine-2,6(3H,7H)-dione or 1-(3,4-dichlorobenzyl)-8-((1R,3R)-3-hydroxycyclopentylamino)-3,7-dimethyl-1H-purine-2,6(3H,7H)-dione] | 0.01 to 1 |
| Cn1c(N[C@H]2CC[C@@H](O)C2)nc2c1c(=O)n(Cc1ccc(Cl)c(Cl)c1)c(=O)n2C (single isomer, unassigned) [Example 71, 1-(3,4-dichlorobenzyl)-8-((1S,3R)-3-hydroxycyclopentylamino)-3,7-dimethyl-1H-purine-2,6(3H,7H)-dione or 1-(3,4-dichlorobenzyl)-8-((1R,3S)-3-hydroxycyclopentylamino)-3,7-dimethyl-1H-purine-2,6(3H,7H)-dione] | 0.01 to 1 |
| Cn1c(N[C@@H]2CC[C@@H](O)C2)nc2c1c(=O)n(Cc1ccc(C(F)(F)F)cc1)c(=O)n2C (single isomer, unassigned) [Example 76, 8-((1R,3R)-3-hydroxycyclopentylamino)-3,7-dimethyl-1-(4-(trifluoromethyl)benzyl)-1H-purine-2,6(3H,7H)-dione or 8-((1S,3S)-3-hydroxycyclopentylamino)-3,7-dimethyl-1-(4-(trifluoromethyl)benzyl)-1H-purine-2,6(3H,7H)-dione] | 1 to 5 |
